Among the data in PubChem BioAssay (NCI) are TGI values, retold here.

Among the test systems are SNB-19 CNS; MDA-MB-435; SF-268 CNS; MDA-N; NCI-H23 lung; CCRF-CEM leukemia; PC-3 prostate; COLO 205 colon; NCI-H522 lung; OVCAR-4 ovarian.
Common to all, as to test: inhibition of tumour cell growth, NCI panel, 48 h

The structures appear in SMILES notation.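 Dose response: 5 concentrations. Exposure: 48 h. Format: 96-well plates. Endpoint: linear interpolation; highest concentration if not reached. At the TGI there is no net growth.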 Where only a bound is given, the exact number is not on record here.

`CN=C1C=C(/N=C2/C=C(N/C(=C\C#N)C(C)(C)O)OC2(C)C)OC1(C)C`: the TGI was over 100 µM with SNB-19 CNS; over 100 µM in the test on MDA-MB-435; over 100 µM with SF-268 CNS; over 100 µM in the test with MDA-N; over 100 µM in the test with NCI-H23 lung; over 74 µM with CCRF-CEM leukemia. In addition, the TGI was over 100 µM in the test with PC-3 prostate, over 100 µM with COLO 205 colon, 69 µM with NCI-H522 lung and over 100 µM in the test on OVCAR-4 ovarian.
Turning to `N=C(N)c1ccc(N=Nc2c(O)c(C(=O)Nc3ccccc3)cc3ccccc23)cc1`, the TGI was 51.5 µM in the test on SNB-19 CNS; over 100 µM in the test on MDA-MB-435; 55.4 µM with SF-268 CNS; over 100 µM in the test with MDA-N; 76.1 µM in the test on NCI-H23 lung; 5.92 µM in the test with CCRF-CEM leukemia. The TGI in the test on PC-3 prostate was over 89.2 µM; with COLO 205 colon it was over 76.9 µM; in the test on NCI-H522 lung it was 34.5 µM; with OVCAR-4 ovarian, 33.1 µM.
For `COc1ccccc1-c1cc(=O)c2cccnc2[nH]1`, the TGI was over 100 µM with SNB-19 CNS; 60.5 µM in the test with MDA-MB-435; over 100 µM in the test with SF-268 CNS; 56.7 µM in the test on MDA-N; over 100 µM in the test with NCI-H23 lung; over 100 µM in the test on CCRF-CEM leukemia. Also, the TGI in the test on PC-3 prostate is over 100 µM; in the test with COLO 205 colon it was 96 µM; in the test with NCI-H522 lung, over 100 µM; with OVCAR-4 ovarian it was over 100 µM.
On to `CCOC(=O)CCC(C(=O)OCC)n1nnc2cc(Nc3c(C)[n+]([O-])c4cc(Cl)ccc4[n+]3[O-])ccc21` (configuration not stated), for which the TGI in the test with SNB-19 CNS, in the test on MDA-MB-435, in the test on SF-268 CNS, with MDA-N, in the test with NCI-H23 lung and with CCRF-CEM leukemia was over 100 µM each time. In addition, the TGI in the test on PC-3 prostate, in the test on COLO 205 colon, in the test on NCI-H522 lung and with OVCAR-4 ovarian was over 100 µM throughout.
In the case of `CC1CC[C@@]2(OC1)OC1C[C@H]3[C@@H]4CC=C5C[C@@H](OC6OC(CO)C(OC7OC(CO)C(O)C(O)C7O)C(O)C6OC6OC(C)C(O)C(O)C6O)CC[C@]5(C)[C@H]4CC[C@]3(C)C1[C@@H]2C` (some centres not stated), the TGI with SNB-19 CNS was found to be 3.92 µM; in the test with MDA-MB-435 it was 1.29 µM; in the test on SF-268 CNS, 1.2 µM; in the test on MDA-N, 2.34 µM; with NCI-H23 lung, 2.57 µM; with CCRF-CEM leukemia, 1.48 µM. In addition, the TGI in the test on PC-3 prostate came out at 0.93 µM; in the test on COLO 205 colon, 0.91 µM; with NCI-H522 lung it was 2.93 µM; with OVCAR-4 ovarian it was 5.03 µM.
Turning to `C[C@]12CC[C@H]3[C@@H](CCC4=C/C(=N/OCCN5CCCCC5)CC[C@@]43C)[C@@H]1CC[C@@H]2O`, the TGI with SNB-19 CNS is 18.5 µM; with MDA-MB-435, 20.2 µM; with MDA-N it was 34.5 µM; with NCI-H23 lung, 30.4 µM; in the test on CCRF-CEM leukemia, 26.9 µM; with PC-3 prostate it was 45.6 µM. Further, the TGI with COLO 205 colon is 47.3 µM; with NCI-H522 lung, 36.1 µM; with OVCAR-4 ovarian it was 58.9 µM.
`CC(CSc1nc2c(c(=N)n1-c1ccccc1)c(=S)n(-c1ccccc1)c(=S)n2-c1ccccc1)CN(C)C` (configuration not stated): the TGI is 17.8 µM with SNB-19 CNS; 3.13 µM in the test on MDA-MB-435; 3.24 µM in the test with SF-268 CNS; 3.76 µM in the test with MDA-N; 4.89 µM with NCI-H23 lung; 1.49 µM in the test with CCRF-CEM leukemia. Further, the TGI was 3.38 µM in the test on PC-3 prostate, 3.48 µM in the test on COLO 205 colon, 2.83 µM in the test on NCI-H522 lung and 3.2 µM in the test on OVCAR-4 ovarian.
Regarding `COc1cc(/C=C2\C(=O)N(c3ccc(Cl)cc3)C(c3ccccc3)S2(=O)=O)cc(OC)c1OC` (configuration not stated), the TGI with SNB-19 CNS was over 100 µM; in the test on MDA-MB-435, 23.1 µM; with SF-268 CNS, over 100 µM; in the test with MDA-N, 20.1 µM; in the test with NCI-H23 lung it was over 100 µM; in the test with CCRF-CEM leukemia it was over 70.7 µM. Besides, the TGI with PC-3 prostate is over 100 µM; in the test on COLO 205 colon, over 32.8 µM; with NCI-H522 lung it was 60.5 µM; in the test with OVCAR-4 ovarian, over 100 µM.
On to `Cc1c(-c2ccccc2)oc(=O)c2ccccc12`, for which the TGI was over 100 µM in the test on SNB-19 CNS; 34.6 µM in the test with MDA-MB-435; 45.1 µM in the test on SF-268 CNS; 59.3 µM in the test on MDA-N; 56.6 µM in the test with NCI-H23 lung; 48.2 µM with CCRF-CEM leukemia. Further, the TGI is 72.1 µM in the test with PC-3 prostate, 33.7 µM with COLO 205 colon, 33.2 µM in the test on NCI-H522 lung and 71.4 µM in the test with OVCAR-4 ovarian.
Take `O=C(Nc1nnc(-c2ccccc2)o1)C(SC(=S)N1CCCC1)c1ccccc1` (configuration not stated): the TGI in the test with SNB-19 CNS was over 100 µM; in the test on MDA-MB-435, over 100 µM; with MDA-N it was over 100 µM; in the test with NCI-H23 lung, 79.7 µM; with CCRF-CEM leukemia, 71.4 µM; with PC-3 prostate, over 100 µM. Further, the TGI in the test on COLO 205 colon is over 100 µM; in the test with NCI-H522 lung, 77.8 µM; in the test on OVCAR-4 ovarian it was over 100 µM.
As for `O=C(CCCCCCCCC(=O)N1C(=O)CC(=O)N(c2ccc(Cl)cc2)C1=S)N1C(=O)CC(=O)N(c2ccc(Cl)cc2)C1=S`, the TGI in the test on SNB-19 CNS is over 100 µM; in the test with MDA-MB-435, over 100 µM; with SF-268 CNS, over 100 µM; in the test on MDA-N it was over 100 µM; in the test on NCI-H23 lung it was over 100 µM; in the test with CCRF-CEM leukemia, 87.1 µM. Also, the TGI with PC-3 prostate, in the test on COLO 205 colon, with NCI-H522 lung and with OVCAR-4 ovarian was over 100 µM in each case.
With `FC(F)(Sc1ncccn1)c1nc2ccccc2o1`, the TGI in the test with MDA-MB-435, with SF-268 CNS, with MDA-N, with NCI-H23 lung, with CCRF-CEM leukemia and in the test on PC-3 prostate was over 100 µM each time. The TGI in the test with COLO 205 colon, in the test on NCI-H522 lung and in the test on OVCAR-4 ovarian was over 100 µM throughout.
Take `c1ccc(CN2CCC(CNc3ncnc4ccccc34)C2)cc1` (configuration not stated): the TGI in the test with SNB-19 CNS, in the test with MDA-MB-435, with SF-268 CNS, in the test with MDA-N, in the test with NCI-H23 lung and in the test with CCRF-CEM leukemia was over 100 µM in each case. Also, the TGI in the test with PC-3 prostate, in the test with COLO 205 colon, with NCI-H522 lung and in the test on OVCAR-4 ovarian was over 100 µM throughout.
